Values quoted from earlier work in PubChem BioAssay AID1259409 (Chemical Carcinogenesis Research Information System (CCRIS), 2018).

Test system: rodent chemically induced tumor inhibition, incidence and multiplicity
Assay: CCRIS tumor inhibitor studies
Settings: Dose [Inhibitor]: 0, Route [Inhibitor]: ORAL, Species: RAT, Strain/Sex: F344/MALE

COc1cc(/C=C/C(=O)O[C@H]2CC[C@]34C[C@]35CC[C@]3(C)[C@@H]([C@H](C)CCC=C(C)C)CC[C@@]3(C)[C@@H]5CC[C@H]4C2(C)C)ccc1O
tumour outcome (control, treated, inhibition, significance) (Carcinogen: 2,2'-DIHYDROXY-DI-N-PROPYLNITROSAMINE, 53609-64-6, N-ETHYL-N-HYDROXYETHYLNITROSAMINE, 13147-25-6, 3,2'-DIMETHYL-4-AMINO-, Carcinogen: 2,2'-DIHYDROXY-DI-N-PROPYLNITROSAMINE, 53609-64-6, N-ETHYL-N-HYDROXYETHYLNITROSAMINE, 13147-25-6, 3,2'-DIMETHYL-4-AMINO-, 1% IN DIET FOR 32 WK BEGINNING 1 WK POST CARCINOGEN TREATMENT (STUDY DURATION: 36 WK), Target Tissue: Type of Lesion: LUNG: ADENOMA, Dose [Carcinogen]: 1000 MG/KG BW DHPN TWICE 1500 MG/KG BW EHEN TWICE, 75 MG/KG BW 3 TIMES ADMINISTERED OVER FIRST 3 WK, Promoter: NONE USED): 7/14 (50%), 11/13 (85%), -70%, not significant | tumour outcome (control, treated, inhibition, significance) (Carcinogen: 2,2'-DIHYDROXY-DI-N-PROPYLNITROSAMINE, 53609-64-6, N-ETHYL-N-HYDROXYETHYLNITROSAMINE, 13147-25-6, 3,2'-DIMETHYL-4-AMINO-, Carcinogen: 2,2'-DIHYDROXY-DI-N-PROPYLNITROSAMINE, 53609-64-6, N-ETHYL-N-HYDROXYETHYLNITROSAMINE, 13147-25-6, 3,2'-DIMETHYL-4-AMINO-, 1% IN DIET FOR 32 WK BEGINNING 1 WK POST CARCINOGEN TREATMENT (STUDY DURATION: 36 WK), Target Tissue: Type of Lesion: THYROID GLAND: ADENOMA, Dose [Carcinogen]: 1000 MG/KG BW DHPN TWICE, 1500 MG/KG BW EHEN TWICE 75 MG/KG BW 3 TIMES ADMINISTERED OVER FIRST 3 WK, Promoter: NONE USED): 3/14 (21%), 2/13 (15%), 29%, not significant | tumour outcome (control, treated, inhibition, significance) (Carcinogen: 2,2'-DIHYDROXY-DI-N-PROPYLNITROSAMINE, 53609-64-6, N-ETHYL-N-HYDROXYETHYLNITROSAMINE, 13147-25-6, 3,2'-DIMETHYL-4-AMINO-, Carcinogen: 2,2'-DIHYDROXY-DI-N-PROPYLNITROSAMINE, 53609-64-6, N-ETHYL-N-HYDROXYETHYLNITROSAMINE, 13147-25-6, 3,2'-DIMETHYL-4-AMINO-, 1% IN DIET FOR 32 WK BEGINNING 1 WK POST CARCINOGEN TREATMENT (STUDY DURATION: 36 WK), Target Tissue: Type of Lesion: THYROID GLAND: CARCINOMA, Dose [Carcinogen]: 1000 MG/KG BW DHPN TWICE, 1500 MG/KG BW EHEN TWICE, 75 MG/KG BW 3 TIMES ADMINISTERED OVER FIRST 3 WK, Promoter: NONE USED): 3/14 (21%), 1/13 (8%), 62%, not significant | tumour outcome (control, treated, inhibition, significance) (Carcinogen: 2,2'-DIHYDROXY-DI-N-PROPYLNITROSAMINE, 53609-64-6, N-ETHYL-N-HYDROXYETHYLNITROSAMINE, 13147-25-6, 3,2'-DIMETHYL-4-AMINO-, Carcinogen: 2,2'-DIHYDROXY-DI-N-PROPYLNITROSAMINE, 53609-64-6, N-ETHYL-N-HYDROXYETHYLNITROSAMINE, 13147-25-6, 3,2'-DIMETHYL-4-AMINO-, 1% IN DIET FOR 32 WK BEGINNING 1 WK POST CARCINOGEN TREATMENT (STUDY DURATION: 36 WK), Target Tissue: Type of Lesion: URINARY BLADDER: CARCINOMA, Dose [Carcinogen]: 1000 MG/KG BW DHPN TWICE, 1500 MG/KG BW EHEN TWICE, 75 MG/KG BW 3 TIMES ADMINISTERED OVER FIRST 3 WK, Promoter: NONE USED): 1/14 (7%), 2/13 (15%), -114%, not significant | outcome (Carcinogen: 2,2'-DIHYDROXY-DI-N-PROPYLNITROSAMINE, 53609-64-6, N-ETHYL-N-HYDROXYETHYLNITROSAMINE, 13147-25-6, 3,2'-DIMETHYL-4-AMINO-, Carcinogen: 2,2'-DIHYDROXY-DI-N-PROPYLNITROSAMINE, 53609-64-6, N-ETHYL-N-HYDROXYETHYLNITROSAMINE, 13147-25-6, 3,2'-DIMETHYL-4-AMINO-, 1% IN DIET FOR 32 WK BEGINNING 1 WK POST CARCINOGEN TREATMENT (STUDY DURATION: 36 WK), Target Tissue: Type of Lesion: URINARY BLADDER: PAPILLOMA, Dose [Carcinogen]: 1000 MG/KG BW DHPN TWICE, 1500 MG/KG BW EHEN TWICE, 75 MG/KG BW 3 TIMES ADMINISTERED OVER FIRST 3 WK, Promoter: NONE USED): 0/14 (0%), 3/13 (23%), -100%, not significant | tumour outcome (control, treated, inhibition, significance) (Carcinogen: 2,2'-DIHYDROXY-DI-N-PROPYLNITROSAMINE, 53609-64-6, N-ETHYL-N-HYDROXYETHYLNITROSAMINE, 13147-25-6, 3,2'-DIMETHYL-4-AMINO-, Carcinogen: 2,2'-DIHYDROXY-DI-N-PROPYLNITROSAMINE, 53609-64-6, N-ETHYL-N-HYDROXYETHYLNITROSAMINE, 13147-25-6, 3,2'-DIMETHYL-4-AMINO-, 1% IN THE DIET FOR 32 WK BEGINNING 1 WK POST CARCINOGEN TREATMENT (STUDY DURATION: 36 WK), Target Tissue: Type of Lesion: LARGE INTESTINE: ADENOMA, Dose [Carcinogen]: 1000 MG/KG BW DHPN TWICE, 1500 MG/KG BW EHEN TWICE, 75 MG/KG BW 3 TIMES ADMINISTERED OVER FIRST 3 WK, Promoter: NONE USED): 7/14 (50%), 5/13 (38%), 24%, not significant | tumour outcome (control, treated, inhibition, significance) (Carcinogen: 2,2'-HYDROXY-DI-N-PROPYLNITROSAMINE, 53609-64-6, N-ETHYL-N-HYDROXYETHYL- NITROSAMINE, 13147-25-6, 3,2'-DIMETHYL-4-AM, Carcinogen: 2,2'-HYDROXY-DI-N-PROPYLNITROSAMINE, 53609-64-6, N-ETHYL-N-HYDROXYETHYL- NITROSAMINE, 13147-25-6, 3,2'-DIMETHYL-4-AM, 1% IN DIET BEGINNING 1 WK POST LAST CARCINOGEN DOSE AND CONTINUING FOR 32 WK (STUDY DURATION: 36 WK), Target Tissue: Type of Lesion: URINARY BLADDER: CARCINOMA, Dose [Carcinogen]: 1000 MG/KG IP DHPN 2X, 1500 MG/KG GAV EHEN 2X AND 75 MG/KG SC DMAB 3X GIVEN OVER THE INITIAL 3 WK PERIOD AT 3-4 D INTERV, Promoter: NONE USED): 1/14 (7%), 2/13 (15%), -114%, not calculated | tumour outcome (control, treated, inhibition, significance) (Carcinogen: 3,2'-DIMETHYL-4-AMINOBIPHENYL, 13394-86-0, 2% IN BASAL DIET BEGINNING POST CARCINOGEN TREATMENT AND CONTINUING FOR 40 WK (STUDY DURATION: 60 WK), Target Tissue: Type of Lesion: PANCREAS: ACINAR CELL NODULE, Dose [Carcinogen]: 50 MG/KG 1/2 WK FOR 20 WK TO RATS MAINTAINED ON ETHINYL ESTRADIOL CONTAINING DIET (0.75 PPM) FOR 1 WK CYCLED WITH ETHINY, Promoter: ETHINYL ESTRADIOL, 57-63-6): 4/10 (40%), 5/13 (38%), 5%, not significant | tumour outcome (control, treated, inhibition, significance) (Carcinogen: 3,2'-DIMETHYL-4-AMINOBIPHENYL, 13394-86-0, 2% IN BASAL DIET BEGINNING POST CARCINOGEN TREATMENT AND CONTINUING FOR 40 WK (STUDY DURATION: 60 WK), Target Tissue: Type of Lesion: PROSTATE: CARCINOMA, Dose [Carcinogen]: 50 MG/KG 1/2 WK FOR 20 WK TO RATS MAINTAINED ON ETHINYL ESTRADIOL CONTAINING DIET (0.75 PPM) FOR 1 WK CYCLED WITH ETHINY, Promoter: ETHINYL ESTRADIOL, 57-63-6): 5/10 (50%), 5/13 (38%), 24%, not significant
